Laboratory results as given in patent US20250275964A1, “METHODS OF INHIBITING LIVER-TYPE GLUTAMINASE, GLS2” (CORNELL UNIVERSITY, priority 2019, published 2025).

What was measured:
[1] = test system: glutaminase activity in mitochondria isolated from breast cancer cell lines; test: Mitochondrial glutaminase activity assay; assay type: biochemical, human
Source text: Breast cancer cells were fractionated into cytosolic, mitochondrial, and nuclear components via partial lysis and centrifugation using the Qproteome Mitochondria Isolation Kit (Qiagen). For all samples, a portion of the starting material (i.e. whole cells) was retained for comparison with the isolated fractions. When cellular fractions were to be analyzed only by western blot, a single 10 cm dish of exponentially growing cells was used. When mitochondria were isolated for glutaminase assays, two 15 cm dishes of exponentially growing cells were used.
A two-reaction protocol was used to measure mitochondrial glutaminase activity. […] The reaction was then quenched by addition of 10 μl of 2.4 M HCl, and samples placed on ice. Next, 20 μl of quenched Reaction Mix 1 was added to 200 μl of Reaction Mix 2 (1 unit bovine liver glutamate dehydrogenase (Sigma-Aldrich), 80 mM Tri-HCl pH 9.4, 200 mM hydrazine, 0.25 mM ADP, 2 mM NAD) and samples were incubated for 1 hour at room temperature. The absorbance at 340 nm was then measured against a matched sample in which heat-inactivated mitochondria (immersed in boiling water for 5 minutes) were used. A standard curve was prepared using given concentrations of glutamate in Reaction Mix 2, allowing the amount of glutamate produced in Reaction 1 to be determined.

[2] = molecular target: T1, recombinant full-length human GLS (GAC splice variant) (Homo sapiens, UniProt O94925); test: Real-time recombinant glutaminase activity assay, GLS; assay type: biochemical; conditions: different concentrations
T1 construct: processed forms of human GAC (residues 72 to 598); inferred from pQE80 vector and Ni-NTA/imidazole purification; made in house; host or cells: E. coli BL21(DE3)
Method: Real-time monitoring of glutaminase activity through NADH production was performed on a Cary Eclipse fluorescence spectrometer. The excitation and emission wavelengths were set at 340 nm and 460 nm, respectively. […] Then, 100 μl of either 100 nM GAC or 500 nM GLS2 was added to this mixture and the fluorescence emission was monitored in real time. After 30 s, 200 μl of a mixture of glutamine and K2HPO4 was added such that the final concentrations of K2HPO4 and glutamine were 100 mM and 20 mM, respectively. The initial velocity of glutamine hydrolysis was obtained from the slopes of the linear portion of the kinetic curve.

[3] = Gross toxicity in treated mice; assay type: in vivo; conditions: 10 mg/kg body weight, three times weekly for three weeks
Method: All experiments involving mice were carried out according to protocols approved by the Institutional Animal Care and Use Committee at Cornell University. In all cases, 6-8 week old female NOD.Cg-Prkdcscid Il2rg^tm1Wjl/SzJ (NSG) mice (The Jackson Laboratory) were used. For xenograft experiments, a suspension of MDA-MB-453 breast cancer cells (or derivative cell lines stably expressing shRNAs) was mixed 1:1 with Matrigel Matrix (BD Biosciences) to give a final concentration of 3×10^6 cells per 100 μl, and 3×10^6 cells were immediately injected into each of the two flanks of 6-8 week old female NOD.Cg-Prkdc^scid Il2rg^tm1Wjl/SzJ (NSG) mice (n=3 mice per condition). Tumor sizes were measured using calipers, and estimated volumes were calculated using the formula V=(π/6)×length×width^2, as described previously (Tomayko et al., “Determination of Subcutaneous Tumor Size in Athymic (Nude) Mice,” Cancer Chemother Pharmacol. 24:148-154 (1989), which is hereby incorporated by reference in its entirety). For experiments using MDA-MB-453 cells stably expressing shRNAs, mice were sacrificed after 6 weeks. For 968 treatment studies, when tumors of 1-2 mm diameter were detected, the mice were randomly divided into two groups and intraperitoneal (IP) injections of 968 (10 mg/kg) solution or carrier solution were initiated and carried out three times weekly. […]

[4] = molecular target: T1, recombinant full-length human GLS (GAC splice variant); conditions: previously reported (Wang et al. 2010); cited from earlier work

T1 sequence (O94925 72-598 isoform O94925-3): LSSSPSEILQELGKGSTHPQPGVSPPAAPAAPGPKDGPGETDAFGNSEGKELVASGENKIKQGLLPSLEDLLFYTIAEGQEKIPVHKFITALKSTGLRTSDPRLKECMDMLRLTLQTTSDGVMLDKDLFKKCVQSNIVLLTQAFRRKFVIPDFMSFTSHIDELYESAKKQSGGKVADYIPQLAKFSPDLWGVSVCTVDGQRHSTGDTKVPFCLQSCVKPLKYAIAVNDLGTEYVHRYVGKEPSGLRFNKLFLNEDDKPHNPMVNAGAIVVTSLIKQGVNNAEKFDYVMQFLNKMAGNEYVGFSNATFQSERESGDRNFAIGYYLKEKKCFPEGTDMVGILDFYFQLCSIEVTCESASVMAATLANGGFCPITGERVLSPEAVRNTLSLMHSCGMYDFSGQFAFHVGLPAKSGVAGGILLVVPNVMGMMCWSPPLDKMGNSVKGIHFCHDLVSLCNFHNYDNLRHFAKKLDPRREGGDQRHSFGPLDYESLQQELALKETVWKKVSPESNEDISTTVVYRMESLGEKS

SMILES | inhibition of mitochondrial glutaminase activity ([1]; mitochondria from MDA-MB-453 cells) | inhibition of mitochondrial glutaminase activity ([1]; mitochondria from basal-subtype cells, 10 μM) | inhibition of mitochondrial glutaminase activity ([1]; mitochondria from luminal-subtype breast cancer cells) | inhibition of recombinant GLS activity [2] | toxicity [3] | binding and inhibition of GLS splice variant GAC [4]
O=C(Cc1ccccc1)Nc1nnc(CCSCCc2nnc(NC(=O)Cc3ccccc3)s2)s1 [BPTES] | no effect on activity | almost completely abolished | only partially inhibited |  |  | 
CN(C)c1ccc(C2Nc3ccc4ccccc4c3C3=C2C(=O)CC(C)(C)C3)cc1Br (stereo not drawn) [Compound 968] |  |  |  | inhibited | no gross evidence of toxicity | binds and inhibits
